According to ChEMBL document CHEMBL1201862, “PubChem BioAssay data set” (2004):
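Cells were grown in 96-well plates and exposed to each compound for 48 hours at five concentrations; endpoints were interpolated linearly between bracketing concentrations, or set to the highest concentration if not reached. The concentration for 50% growth inhibition is given as GI50.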 Calls of active or inactive are those of the source. No stated cut-off is given here; in the data, active = GI50 up to about 1.1 µM and inactive = higher.

What was measured:
Experiment in all cases: DTP human tumour cell line panel, 48 h
MOLT-4 = tested on: MOLT-4
U-251 = tested on: U-251
SR = tested on: SR
MDA-N = tested on: MDA-N
KM12 = tested on: KM12
RPMI-8226 = tested on: RPMI-8226
OVCAR-8 = tested on: OVCAR-8
SK-OV-3 = tested on: SK-OV-3
SK-MEL-2 = tested on: SK-MEL-2
LOX IMVI = tested on: LOX IMVI
HOP-92 = tested on: HOP-92
NCI/ADR-RES = tested on: NCI/ADR-RES
HCT-15 = tested on: HCT-15
UACC-62 = tested on: UACC-62
786-0 = tested on: 786-0
TK-10 = tested on: TK-10
UACC-257 = tested on: UACC-257
PC-3 = tested on: PC-3
SF-295 = tested on: SF-295
HCT-116 = tested on: HCT-116
ACHN = tested on: ACHN
MDA-MB-435 = tested on: MDA-MB-435
SN12C = tested on: SN12C
OVCAR-3 = tested on: OVCAR-3
OVCAR-5 = tested on: OVCAR-5
HCC 2998 = tested on: HCC 2998
M14 = tested on: M14
NCI-H522 = tested on: NCI-H522
UO-31 = tested on: UO-31
COLO 205 = tested on: COLO 205
A498 = tested on: A498
OVCAR-4 = tested on: OVCAR-4
RXF 393 = tested on: RXF 393
CCRF-CEM = tested on: CCRF-CEM
Hs-578T = tested on: Hs-578T
IGROV-1 = tested on: IGROV-1
EKVX = tested on: EKVX
Malme-3M = tested on: Malme-3M
NCI-H23 = tested on: NCI-H23
MDA-MB-231 = tested on: MDA-MB-231
MCF7 = tested on: MCF7
NCI-H226 = tested on: NCI-H226
T47D = tested on: T47D
HT-29 = tested on: HT-29
SK-MEL-5 = tested on: SK-MEL-5
SF-539 = tested on: SF-539
HOP-62 = tested on: HOP-62
A549 = tested on: A549
K562 = tested on: K562
HL-60 = tested on: HL-60
SK-MEL-28 = tested on: SK-MEL-28
SNB-19 = tested on: SNB-19
SF-268 = tested on: SF-268
SW-620 = tested on: SW-620
SNB-75 = tested on: SNB-75
CAKI-1 = tested on: CAKI-1
NCI-H460 = tested on: NCI-H460
DU-145 = tested on: DU-145

O=C(O)CCCc1ccc2c(c1)CC1(C2)Cc2ccc(CCCC(=O)O)cc2C1
GI50 (MOLT-4): > 100 µM (inactive)
GI50 (U-251): > 100 µM (inactive)
GI50 (SR): > 100 µM (inactive)
GI50 (MDA-N): > 100 µM (inactive)
GI50 (KM12): > 100 µM (inactive)
GI50 (RPMI-8226): > 100 µM (inactive)
GI50 (OVCAR-8): > 100 µM (inactive)
GI50 (SK-OV-3): > 100 µM (inactive)
GI50 (SK-MEL-2): > 100 µM (inactive)
GI50 (LOX IMVI): > 100 µM (inactive)
GI50 (HOP-92): > 100 µM (inactive)
GI50 (NCI/ADR-RES): > 100 µM (inactive)
GI50 (HCT-15): > 100 µM
GI50 (UACC-62): > 100 µM (inactive)
GI50 (786-0): > 100 µM (inactive)
GI50 (TK-10): > 100 µM (inactive)
GI50 (UACC-257): > 100 µM (inactive)
GI50 (PC-3): > 100 µM (inactive)
GI50 (SF-295): > 100 µM (inactive)
GI50 (HCT-116): > 100 µM (inactive)
GI50 (ACHN): > 100 µM (inactive)
GI50 (MDA-MB-435): > 100 µM (inactive)
GI50 (SN12C): > 100 µM (inactive)
GI50 (OVCAR-3): > 100 µM (inactive)
GI50 (OVCAR-5): > 100 µM (inactive)
GI50 (HCC 2998): > 100 µM (inactive)
GI50 (M14): > 100 µM (inactive)
GI50 (NCI-H522): > 100 µM (inactive)
GI50 (UO-31): > 100 µM (inactive)
GI50 (COLO 205): > 100 µM (inactive)
GI50 (A498): > 100 µM (inactive)
GI50 (OVCAR-4): > 100 µM (inactive)
GI50 (RXF 393): > 100 µM (inactive)
GI50 (CCRF-CEM): > 100 µM (inactive)
GI50 (Hs-578T): > 100 µM (inactive)
GI50 (IGROV-1): > 100 µM (inactive)
GI50 (EKVX): > 100 µM (inactive)
GI50 (Malme-3M): > 100 µM (inactive)
GI50 (NCI-H23): > 100 µM (inactive)
GI50 (MDA-MB-231): > 100 µM (inactive)
GI50 (MCF7): > 100 µM (inactive)
GI50 (NCI-H226): > 100 µM (inactive)
GI50 (T47D): > 100 µM (inactive)
GI50 (HT-29): > 100 µM (inactive)
GI50 (SK-MEL-5): 54 µM (inactive)
GI50 (SF-539): > 100 µM (inactive)
GI50 (HOP-62): > 100 µM (inactive)
GI50 (A549): > 100 µM (inactive)
GI50 (K562): > 100 µM (inactive)
GI50 (HL-60): > 100 µM (inactive)

O=C1OC(OC/C(Br)=C(/Br)COC2OC(=O)C(Cl)=C2Cl)C(Cl)=C1Cl (stereo not drawn)
GI50 (MOLT-4): 2.26 µM (inactive)
GI50 (U-251): 7.6 µM (inactive)
GI50 (SR): 0.724 µM (active)
GI50 (MDA-N): 8.04 µM (inactive)
GI50 (KM12): 8.75 µM (inactive)
GI50 (RPMI-8226): 1.68 µM (inactive)
GI50 (OVCAR-8): 6.93 µM (inactive)
GI50 (SK-OV-3): 26.9 µM (inactive)
GI50 (SK-MEL-2): 26.2 µM (inactive)
GI50 (LOX IMVI): 2.69 µM (inactive)
GI50 (HOP-92): 9.4 µM (inactive)
GI50 (NCI/ADR-RES): 6.7 µM (inactive)
GI50 (HCT-15): 9.29 µM
GI50 (UACC-62): 14 µM (inactive)
GI50 (786-0): 5.82 µM (inactive)
GI50 (TK-10): 13.5 µM (inactive)
GI50 (UACC-257): 12.1 µM (inactive)
GI50 (PC-3): 15.8 µM (inactive)
GI50 (SF-295): 16.1 µM (inactive)
GI50 (HCT-116): 3.13 µM (inactive)
GI50 (ACHN): 10.4 µM (inactive)
GI50 (MDA-MB-435): 9.71 µM (inactive)
GI50 (SN12C): 9.1 µM (inactive)
GI50 (OVCAR-3): 4.88 µM (inactive)
GI50 (OVCAR-5): 14.1 µM (inactive)
GI50 (HCC 2998): 16.7 µM (inactive)
GI50 (M14): 6.79 µM (inactive)
GI50 (NCI-H522): 2.14 µM (inactive)
GI50 (SK-MEL-28): 8.51 µM (inactive)
GI50 (UO-31): 6.31 µM (inactive)
GI50 (COLO 205): 4.29 µM (inactive)
GI50 (A498): 21.9 µM (inactive)
GI50 (SNB-19): 18.4 µM (inactive)
GI50 (OVCAR-4): 7.6 µM (inactive)
GI50 (RXF 393): 5.09 µM (inactive)
GI50 (CCRF-CEM): 1.71 µM (inactive)
GI50 (Hs-578T): 13 µM (inactive)
GI50 (IGROV-1): 13.7 µM (inactive)
GI50 (SF-268): 9.82 µM (inactive)
GI50 (EKVX): 16.1 µM (inactive)
GI50 (SW-620): 2.69 µM (inactive)
GI50 (SNB-75): 18.7 µM (inactive)
GI50 (Malme-3M): 7.57 µM (inactive)
GI50 (NCI-H23): 4.21 µM (inactive)
GI50 (MDA-MB-231): 7.69 µM (inactive)
GI50 (MCF7): 12.9 µM (inactive)
GI50 (CAKI-1): 3.15 µM (inactive)
GI50 (NCI-H460): 19.6 µM (inactive)
GI50 (NCI-H226): 26.2 µM (inactive)
GI50 (DU-145): 16.1 µM (inactive)
GI50 (T47D): 9.95 µM (inactive)
GI50 (HT-29): 4.93 µM (inactive)
GI50 (SK-MEL-5): 13.4 µM (inactive)
GI50 (SF-539): 21.8 µM (inactive)
GI50 (HOP-62): 11.7 µM (inactive)
GI50 (A549): 22.1 µM (inactive)
GI50 (K562): 2.07 µM (inactive)
GI50 (HL-60): 1.71 µM (inactive)
